Test results: US20230285260A1, “USE OF SACCHARIDES FOR CRYOPROTECTION AND RELATED TECHNOLOGY” (Zeltiq Aesthetics, Inc., priority 2017, published 2023)

System: subject's skin
Experiment: pre-cooling skin treatment followed by cooling (freeze) treatment at subject's flank, compared to a control site
Type: in vivo, human
Conditions: general statement of the inventors' finding
Protocol: A mixture of trehalose, water, and […] (PG) was tested as a pre-cooling skin treatment. The mixture was formed by combining 100 grams of trehalose, 100 mL of water, and 40 mL of PG. The trehalose was expected to provide cryoprotection, while the water and PG were expected to act as penetration-enhancing excipients. A first site at a subject's right flank was given the pre-cooling skin treatment, while an opposite second site at the subject's left flank was designated as a control. The pre-cooling treatment at the first site included placing a small piece of rayon fabric soaked in […] of the mixture directly onto the subject's skin and waiting for 12 minutes. It was expected that passive diffusion of trehalose into the subject's skin occurred to some extent during this period. Next, an ultrasound cavitation device (40 kHz) was moved top-to-bottom and bottom-to-top over the subject's skin at the first site for 3 minutes. During this period, 5 mL of the mixture was poured over the subject's skin at the first site.
After the pre-cooling skin treatment at the first site, an applicator having a rectangular plate-type heat-transfer surface with an area of 1.7 square inches was used to execute a cooling treatment at the first and second sites. […]

OC[C@H]1O[C@H](O[C@H]2O[C@H](CO)[C@@H](O)[C@H](O)[C@H]2O)[C@H](O)[C@@H](O)[C@@H]1O [trehalose]
reducing cryoinjury to skin cells: effective
